Test system: blood myostatin
Assay: Effect of compound A on blood myostatin in NAFLD patients, oral administration for 72 weeks versus placebo
Assay type: in vivo, human
Conditions: 0.4 mg per day oral (0.2-mg tablet twice a day)
Experimental: An effect on blood myostatin at the time of the oral administration of 0.4 mg per day of the compound A (a 0.2-mg tablet of the compound A was administered twice a day at the time of fasting) to a patient of a nonalcoholic fatty liver disease (NAFLD) for 72 weeks was investigated by comparison to the administration of a placebo. […] It was clear from FIG. 1 that the administration of the compound A reduced the fasting blood myostatin concentration at 12 weeks and 72 weeks from the administration in a stepwise manner as compared to the placebo administration.

Question: `CC[C@@H](Oc1cccc(CN(CCCOc2ccc(OC)cc2)c2nc3ccccc3o2)c1)C(=O)O` [Compound A, (R)-2-[3-[[N-(benzoxazol-2-yl)-N-3-(4-methoxyphenoxy)propyl]aminomethyl]phenoxy]butyric acid] was tested. Which “fasting blood myostatin concentration, change from baseline as compared to placebo” value (12 weeks after start of administration) did it give?
Answer: The value was “reduced”.

Question: What about the “fasting blood myostatin concentration, change from baseline as compared to placebo” value (72 weeks after start of administration) of the same compound?
Answer: The value was “reduced”.
